Entries after “also recorded” stand apart in the source; their conditions may differ.
Experiments:
ghrelin receptor [1] = details: cited from earlier work
From the text: (50% activity independent of the endogenous ligand ghrelin). The ghrelin receptor exerts a wide range of physiological functions, including appetite regulation, alcohol consumption, adipocyte metabolism, and glucose homeostasis[11]–[14], due to its broad distribution and multiple signaling pathways through divergent G-protein coupling or β-arrestin recruitment. The endogenous agonist ghrelin is a 28-amino acid peptide secret ...

ghrelin receptor mutants = test: IP1 accumulation, ghrelin receptor mutants, HEK293 cells, 37 °C 2 h (compound 21 containing 10 nM ghrelin); format: cell-based, human
From the text: Fig. 2 The binding mode of PF-05190457 with the ghrelin receptor. a The detailed binding mode of PF-05190457 in the orthosteric pocket of the ghrelin receptor. The |Fo| − |Fc| omit map (contoured at 3.0 σ) for PF-05190457 (shown as marine blue sticks). […] The diazaspiro core is shown in pink, arm-1 is sky blue, and arm-2 is light green. The red solid lines indicate hydrogen bonds involved in interactions with the side chains of key residues. d–f Key residues of the ghrelin receptor (wheat sticks) involved in ligand binding in cavity III (d), cavity I (e), and cavity IV (f). The binding pocket is highly hydrophobic, and the particular polar network is shown as black dotted lines. g IP1 accumulation induced by the inverse agonist PF-05190457 and antagonist compound 21. Bars represent the difference in the calculated potency (pIC50) of the inverse agonist for mutations relative to the WT ghrelin receptor. Data are colored according to extent of effect. nd not detected, **P < 0.01, ***P < 0.001 (one-way analysis of variance (ANOVA) followed by Dunnett’s test, compared with the response of WT, P < 0.001, P < 0.001, P < 0.001, P > 0.999, nd, nd, P = 0.05, nd, P < 0.001, P < 0.001, nd, nd, nd, nd, nd, nd, P < 0.01, P = 0.264, P < 0.001, nd, P < 0.001, nd from left to right). Data represent the mean ± SEM from n = 3 biologically independent experiments performed in triplicate. […] The salt bridges between E124^3.33 and R283^6.55 as well as between R102^2.63 and Q120^3.29, are broken upon PF-05190457 binding.
To measure the activity of inverse agonist PF-05190457 (Tocris, Cat. No. 6350), we carried out IP1 accumulation assays for ghrelin receptor independent of agonist. The agonist ghrelin and antagonist compound 21 were also performed as the control. The cDNA of ghrelin receptor subcloned into pcDNA3.1(+) expression vector with a HA signal sequence followed by a Flag tag at the N-terminus. Point mutations used in our study were generated by using Q5 site-Directed Mutagenesis kit (NEB). All the constructs were verified by sequencing. The constructs were expressed in HEK293 cells using PEI transfection reagent (YEASEN, 40815es03) according to the manufacturer’s instruction. Cells were harvested 48 h post transfection.
IP accumulation was measured using Cisbio IP1 assay kit (Cisbio, 62IPAPEB), which has been previously described. In brief, the harvested cells were distributed in a low volume 96-well dish and stimulated with increased concentration of inverse agonist PF-05190457, agonist ghrelin peptide or antagonist compound 21 containing 10 nM ghrelin peptide at 37 °C for 2 h. After that, d2-labeled IP1 and cryptate-labeled anti-IP1 monoclonal antibody dissolved in Lysis Buffer were added to the wells. After 1 h incubation at room temperature. IP1 was quantified using Synergy H1 microplate reader (BioTek) with excitation at 320 nm, emission at 620 nm, and 665 nm. The accumulation of IP1 was calculated according to a standard dose–response curve in GraphPad Prism 8 (GraphPad Software). Data were represented as the mean ± SEM from three independent experiments and all experiments were repeated at least three times.
Supplementary Fig. 6: IP1 accumulation assay.
(a) Expression level of the ghrelin receptor mutants. Data represent the mean ± SEM from three independent experiments performed in triplicate. ns, not significant, **p < 0.01, ***p < 0.001 (one-way analysis of variance [ANOVA] followed by Dunnett’s test, compared with the response […]
0.001, p=0.996, p=0.008, p=0.999 from left to right). Data represent the mean ± SEM from n=3 biologically independent experiments performed in triplicate.
(b) IP1 accumulation measurement induced by inverse agonist PF-05190457(left), agonist ghrelin (middle) and antagonist compound 21 (right). ns, not significant; nd, not detected; ***p < 0.001 […]
< 0.001, nd, nd, nd, p=0.264, nd, nd from left to right). Data represent the mean ± SEM from […]

[2] = test system: wild-type ghrelin receptor; test: IP1 accumulation, wild-type ghrelin receptor, HEK293 cells, 37 °C 2 h, Cisbio IP1 kit; format: cell-based, human; details: WT
Description: Fig. 1 Overall structures of ghrelin receptors bound to inverse agonist and agonist. a Dose-dependent responses of endogenous agonist ghrelin, inverse agonist PF-05190457 and antagonist compound 21 containing 10 nM ghrelin peptide at wild-type ghrelin receptor measured by cellular IP1 accumulation assays. […] Data represent the mean ± SEM from n = 3 biologically independent experiments performed in triplicate. b View from within the plane of the membrane. The inverse agonist-bound ghrelin receptor is represented as a wheat cartoon, and PF-05190457 is shown as a marine blue sphere. Cryo-EM structure of the agonist ghrelin-bound ghrelin receptor-Gαo1-scFv16 complex. c Ghrelin peptides and receptors are shown as deep salmon spheres and aquamarine cartoons, respectively. The Go heterotrimer and scFv16 are shown in the gray cartoon. d View from the extracellular side of the membrane. […]
IP accumulation was measured using Cisbio IP1 assay kit (Cisbio, 62IPAPEB), which has been previously described. […] IP1 was quantified using Synergy H1 microplate reader (BioTek) with excitation at 320 nm, emission at 620 nm, and 665 nm. The accumulation of IP1 was calculated according to a standard dose–response curve in GraphPad Prism 8 (GraphPad Software). […]

ghrelin receptor [3] = details: cited from earlier work; remark: listed apart in the source
From the text: The ghrelin receptor is activated by endogenous ghrelin peptide and contains constitutive activity as ~50% of the maximal activity in the absence of ghrelin peptide.

Q: What does the source list for “unacylated form of ghrelin: unacylated form of ghrelin (GSSFLSPEHQRVQQRKESKKPPAKLQPR; Ghrelin-28 unacylated; UniProt Q9UBU3 24-51, looked up)”?
A: activation of the ghrelin receptor (ghrelin receptor [1]): does not bind or activate the ghrelin receptor at all; binding to the ghrelin receptor (ghrelin receptor [1]): does not bind

Q: What does the source list for `Cc1cc(-c2ccc3c(c2)CC[C@H]3N2CC3(CCN(C(=O)Cc4cn5cc(C)sc5n4)CC3)C2)ncn1` [PF-05190457]?
A: inverse agonism potency, effect of mutation (ghrelin receptor mutants; D99^2.60A): significantly reduced the potency of inverse agonism; inverse agonism potency, effect of mutation (ghrelin receptor mutants; E124^3.33A): impaired the inverse agonism potency; inverse agonism potency, effect of mutation (ghrelin receptor mutants; F119^3.28A): essential for the inverse agonism potency; inverse agonistic activity, effect of mutation (ghrelin receptor mutants; F279^6.51A): significantly reduced the inverse agonistic activity; also recorded: significantly reduced the potency of inverse agonism; inverse agonistic activity, effect of mutation (ghrelin receptor mutants; F312^7.42A): significantly reduced the inverse agonistic activity; also recorded: significantly reduced the potency of inverse agonism; inverse agonism potency, effect of mutation (ghrelin receptor mutants; Q120^3.29A): essential for the inverse agonism potency; inverse agonism potency, effect of mutation (ghrelin receptor mutants; R283^6.55A): impaired the inverse agonism potency; inverse agonism potency, effect of mutation (ghrelin receptor mutants; S308^7.38A): decreased the inverse agonism potency; inverse agonistic activity, effect of mutation (ghrelin receptor mutants; W276^6.48A): significantly reduced the inverse agonistic activity; also recorded: significantly reduced the potency of inverse agonism; effect on constitutive (basal) activity of the ghrelin receptor [2]: functions as an inverse agonist to significantly reduce basal activity; also recorded: significantly reduced

Q: With `Cc1nc2ccc(Oc3ccc(Br)cc3F)nc2c(=O)n1C[C@H]1CCCN(C(C)C)C1` [compound 21] as the molecule, how does the “potency, effect of mutation” value (ghrelin receptor mutants; F279^6.51A) read?
A: impaired the potency

Q: What about the “potency, effect of mutation” value (ghrelin receptor mutants; F312^7.42A) of the same molecule?
A: impaired the potency

Q: What about the “potency, effect of mutation” value (ghrelin receptor mutants; W276^6.48A) of the same molecule?
A: impaired the potency

Q: What about the “effect on constitutive activity of the ghrelin receptor” value (ghrelin receptor [3]) of the same molecule?
A: had no effect on the constitutive activity of the ghrelin receptor

Source: article PMC8758724, “Molecular mechanism of agonism and inverse agonism in ghrelin receptor” (Nature Communications, 2022)
